Structures can show the parent of a compound that is named as a salt. Where two headings read alike, the source gives them in different places.
Columns and labels:
[1] = Miscibility or solubility of fluorinated molecules in propellants; settings: for Concentration (C, in brackets) at which the miscibility or solubility test was done, HFA-134a / Concentration (C, in brackets) at which the miscibility or solubility test was done, HFA-227: solutions below this are monophasic, not an upper limit; for Miscibility or solubility, HFA-134a: in propellant HFA-134a, at the concentration in brackets; for Miscibility or solubility, HFA-227: in propellant HFA-227, at the concentration in brackets
Description: The fluorinated chemical was weighed in a clear PET vial. The vial was then crimped, and subsequently pressure filled with one of the propellants until the desired total weight was reached.
Solutions at concentrations below these limits are therefore monophasic. The concentrations quoted are not upper limits.

[2] = Solubility of drug compounds in 4HPFOH (optical, UV-Vis); type: physicochemical
Description: Although most drug compounds are insoluble in the fluorinated systems, in some instances it is possible to solubilise the drug.
Drug suspensions were prepared in sealed glass vials by weight. The suspensions were then allowed to rest over a couple of day to reach equilibrium. They were firstly assessed optically, and in the case of a possible solubility by UV-vis spectroscopy. The solutions were then filtered with 0.2 μm PTFE filters and studied by UV-Vis spectroscopy between 280 nm and 350 nm. A range of suspensions were prepared, to be able to reach saturation levels. Calibration curves were then drawn by plotting the absorbance as a function of concentration. The inflexion point at which the slope of the calibration plot changed was taken as the solubility limit. The experiment was carried out at least 3 times for each drug.

[3] = Solubility of selected excipients in 4HPFOH; settings: for Concentration % w/w (at which solubility in 4HPFOH was assessed): excipient in 4HPFOH; for Solubility or miscibility in 4HPFOH: excipient in 4HPFOH at the concentration of the same line, sonicated, heated, cooled
Description: The second test carried out was to evaluate the solubility (or miscibility in the case of liquid samples) of some excipients in 4HPFOH.
The excipients were weighed in glass vials with a screw-on plastic cap. 4HPFOH was added at the required concentration, and the vial sealed with Teflon tape and the screw-on cap. The sample was sonicated and heated to quicken the solubilisation of the excipient. The vial was then allowed to cool down.

Row | Compound | Concentration (C, in brackets) at which the miscibility or solubility test was done, HFA-134a [1] | Concentration (C, in brackets) at which the miscibility or solubility test was done, HFA-227 [1] | Miscibility or solubility, HFA-134a [1] | Miscibility or solubility, HFA-227 [1] | also measured
1 | OCCC(F)(F)C(F)(F)C(F)(F)C(F)(F)C(F)(F)C(F)(F)F [1H,1H,2H,2H Perfluorooctan-1-ol] | (C <7.30% w/w) | < 5.17 % w/w | Yes | Yes | 
2 | OCC(O)CC(F)(F)C(F)(F)C(F)(F)C(F)(F)C(F)(F)C(F)(F)F (centres unmarked) [1H,1H,2H,3H,3H Perfluoro-1,2-nonandiol] | (C <4.84% w/w) | < 3.71 % w/w | Yes | Yes | 
3 | OCC(F)(F)C(F)(F)C(F)(F)C(F)(F)C(F)(F)C(F)(F)C(F)(F)C(F)(F)F [1H,1H, Perfluorononan-1-ol] | (C <4.55% w/w) | < 4.15 % w/w | Yes | Yes | 
4 | FC(OC(F)(F)C(F)(OC(F)(F)C(F)(OC(F)(F)C(F)(OC(F)(F)C(F)(F)C(F)(F)F)C(F)(F)F)C(F)(F)F)C(F)(F)F)C(F)(F)F (centres unmarked) [2H Perfluoro-5,8,11-trimethyl-3,6,9,12-tetrafluoropropylether] | (C <43.49% w/w) | (C <35.36% w/w) | Yes | Yes | 
5 | Cc1ccc(CCOCCNS(=O)(=O)CCCNCCc2ccc(O)c3nc(O)sc23)cc1 [3-[2-(4-hydroxy-2-oxo-3H-1,3-benzothiazol-7-yl)ethylamino]-N-[2-[2-(4-methylphenyl)ethoxy)ethyl]propansulphonamide] |  |  |  |  | Solubility in 4HPFOH [2]: less than 0.1 ppm(w/w); Solubility in 4HPFOH (in words) [2]: insoluble
6 | CCCC1O[C@@H]2C[C@H]3[C@@H]4CCC5=CC(=O)C=C[C@]5(C)[C@H]4[C@@H](O)C[C@]3(C)[C@]2(C(=O)CO)O1 (some centres unmarked) [Budesonide] |  |  |  |  | Solubility in 4HPFOH (in words) [2]: soluble; Solubility limit in 4HPFOH [2]: 0.219-0.246 % w/w
7 | C[C@H](CCC(=O)O)[C@H]1CC[C@H]2[C@@H]3CC[C@@H]4C[C@H](O)CC[C@]4(C)[C@H]3C[C@H](O)[C@]12C [Deoxycholic acid] |  |  |  |  | Concentration % w/w (at which solubility in 4HPFOH was assessed) [3]: 0.90 % w/w; Solubility or miscibility in 4HPFOH [3]: Yes
8 | CCCCC(CC)COC(=O)CC(C(=O)OCC(CC)CCCC)S(=O)(=O)[O-].[Na+] (centres unmarked) [Dioctyl-sulfosuccinate sodium salt] |  |  |  |  | Concentration % w/w (at which solubility in 4HPFOH was assessed) [3]: 0.096 % w/w; Solubility or miscibility in 4HPFOH [3]: Yes
9 | CCCCCCCCCCCC[N+](C)(C)C.[Br-] [Dodecyltrimethyl Ammonium Bromide] |  |  |  |  | Concentration % w/w (at which solubility in 4HPFOH was assessed) [3]: 1.00 % w/w; Solubility or miscibility in 4HPFOH [3]: Yes
10 | CCOC(=O)C(F)(F)C(F)(F)C(F)(F)C(F)(F)C(F)(F)C(F)(F)C(F)(F)C(F)(F)C(F)(F)C(F)F [Ethyl 11H-Perfluoroundecanoate] | (C <4.93% w/w) | < 4.43 % w/w | Yes | Yes | 
11 | CCOC(=O)C(F)(F)C(F)(F)C(F)(F)C(F)(F)C(F)(F)C(F)(F)C(F)(F)C(F)(F)C(F)(F)C(F)(F)C(F)(F)F [Ethyl Perfluoro n-Dodecanoate] | (C <9.24% w/w) | (C <41.15% w/w) | Yes | Yes | 
12 | COc1ccc(CC(C)NCC(O)c2ccc(O)c(NC=O)c2)cc1 (centres unmarked) [Formoterol Fumarate Dihydrate] |  |  |  |  | Solubility in 4HPFOH (in words) ([2]; in 4HPFOH, equilibrated a couple of days): insoluble
13 | COC(=O)C(F)(F)C(F)(F)C(F)(F)C(F)(F)C(F)(F)C(F)(F)C(F)(F)C(F)(F)C(F)(F)F [Methyl Perfluorodecanoate] | (C <42.63% w/w) | (C <39.40% w/w) | Yes | Yes | 
14 | COC(=O)C(F)(OC(F)(F)C(F)(OC(F)(F)C(F)(OC(F)(F)C(F)(OC(F)(F)C(F)(F)C(F)(F)F)C(F)(F)F)C(F)(F)F)C(F)(F)F)C(F)(F)F (centres unmarked) [Methyl perfluoro 2,5,9,11-Tetramethyl 3,6,9,12 Tetraoxapentadecanoate] | (C <10.37% w/w) | < 8.90 % w/w | Yes | Yes | 
15 | CCCCCCCCO[C@@H]1O[C@H](CO)[C@@H](O)[C@H](O)[C@H]1O [N Octyl beta D Glucopyranoside] |  |  |  |  | Concentration % w/w (at which solubility in 4HPFOH was assessed) [3]: 0.11 % w/w; Solubility or miscibility in 4HPFOH [3]: Yes
16 | CCCCCCCCC[N+](C)(C)C.[Br-] [Nonyltrimethyl Ammonium Bromide] |  |  |  |  | Concentration % w/w (at which solubility in 4HPFOH was assessed) [3]: 0.96 % w/w; Solubility or miscibility in 4HPFOH [3]: Yes
17 | O=C(OC(=O)C(F)(F)C(F)(F)C(F)(F)C(F)(F)C(F)(F)C(F)(F)F)C(F)(F)C(F)(F)C(F)(F)C(F)(F)C(F)(F)C(F)(F)F [Perfluoroheptanoic anhydride] | (C <9.89% w/w) | < 9.13 % w/w | Yes | Yes | 
18 | CC(C)(C)NCC(O)c1cc(O)cc(O)c1 (centres unmarked) [Terbutaline Sulphate] |  |  |  |  | Solubility in 4HPFOH [2]: less than 0.1 ppm(w/w); Solubility in 4HPFOH (in words) [2]: insoluble
